Experimental findings from patent EP0278661A1, “A thiophosphoric acid ester as an insecticide, nematocide and acaricide” (priority 1987, dated 1988) are described below.

The test system of data set [1] is southern corn rootworm (Diabrotica undecimpunctata howardi BABER). Description: Soil treatment test against southern corn rootworm larvae (mortality). It counts as in vivo. The settings on record: 48 h, 1 ppm active ingredient in soil, third instar larvae, two days after liberation. The protocol:
The emulsifiable concentrate of each test compound formulated according to Formulation example 1 was diluted with water, and 5 ml of the resulting aqueous dilute liquor was mixed with 50 g of soil to make the concentration of active ingredient in soil 1 ppm. The soil was then placed in a polyethylene cup of 5.6 cm in diameter and 5.8 cm high, and two pieces of corn having roots of 2 to 3 cm long were planted. At the same time, ten third instar larvae of southern corn rootworm (Diabrotica undecimpunctata howardi BABER) were liberated in the cup. Two days after liberation, the number of the dead and alive larvae was counted to obtain mortality (%).

A short description of data set [2]: Acute oral toxicity in mouse (mortality). The settings on record: in vivo; oral (stomach sound), 100 mg/kg, ICR mouse, observed for 7 days, 5 head per group; read-out: Mortality (%) at the dose of 100 mg/kg. The protocol: After fasting of about 24 hours, ICR series mouse was weighed by an electronic balance. A stomack sound for mouse was attached to a syringe filled with test solution, the syringe end was slid to innermost of the mouse's throat to insert it to the stomack, and a definite amount of the test solution was injected. 4 Hours after the administration, a bait and water were given to the mouse for 7 days to observe a mortality (5 head per group).

Data set [3] relates to root-knot nematodes (Meloidogyne sp.). Description: Soil treatment test against root-knot nematodes on tomato plants (degree of root-knot). Details: key: -: No settlement; - to +: Not more than 10% as compared with untreated plot; +: 10% - 40% as compared with untreated plot; ++: 40% - 80% as compared with untreated plot; +++: The same as or more than untreated plot. It counts as in vivo. The settings on record: observed three weeks after planting. The protocol: The emulsifiable concentrate of each test compound formulated according to Formulation example 1 was diluted with water, and 5 ml of the resulting aqueous dilute liquor was mixed with 600 g of soil contaminated with root-knot nematodes (Meloidogyne sp.) to make the concentration of active ingredient in soil 4 or 1 ppm. The soil was placed in a polyethylene cup of 12 cm in diameter and 8 cm in height, and three tomato plants of 3 to 4 leaf stage were planted.

The test system of data set [4] is carmine spider mite (Tetranychus cinnabarinus). Description: Spray and soil drench test against carmine spider mite on kidney bean (degree of damage). It counts as in vivo. The arrangement: key: -: Little damage is observed.; +: Slight damage is observed.; ++: Same damage as in the untreated plot is observed. The settings on record: 500 ppm spray plus soil drench, examined after 8 days. On the procedure: Female adults of carmine spider mite (Tetranychus cinnabarinus) were made parasitic on the leaves of potted kidney bean in a primary leaf stage, at a rate of 10 adults per leaf, which had elapsed seven days after sowing, and stored in a constant-temperature room kept at 25°C. After six days, 15 ml of a dilute solution, previously prepared by diluting the emulsifiable concentrate of the following test compounds obtained according to Formulation example 1 with water so that the active ingredient concentration was 500 ppm, was sprayed thereon by means of a turn table. At the same time, soil drench was carried out with 2 ml of the dilute solution. After 8 days, the degree of damage of each kidney bean by mites was examined.
The degree of damage was classified into three stages, -, + and ++. - : Little damage is observed. + : Slight damage is observed. ++ : Same damage as in the untreated plot is observed.

Where [5] appears, read: concentration in the soil 1 ppm.
The mark [6] stands for this setting: concentration in the soil 4 ppm.

As to `CCCSP(=O)(OCC)Oc1ccccc1` (stereo not drawn) [(A)], the mortality at 1 ppm in data set [1] amounted to 70%. Further, the mortality at 168 h in data set [2] was 100%.

Consider `CCOP(=O)(Oc1ccccc1)SC(C)C` (stereo not drawn) [(B)], for which the figures for the Extent of settlement result in data set [3] (setting [5]) and in data set [3] (setting [6]) were “+++” and “+ (10% - 40% as compared with untreated plot)”, respectively. Also, the mortality at 1 ppm in data set [1] is 0%. Also, the mortality at 168 h in data set [2] is 100%.

Consider `CCOP(=O)(Oc1ccccc1)SC(C)CC` (stereo not drawn) [(C)], for which the Extent of settlement entry in data set [3] (setting [5]) is listed as “+++”; in data set [3] (setting [6]), “- to + (Not more than 10% as compared with untreated plot)”. In addition, the mortality at 168 h in data set [2] is 100%.

With `Cc1cc(Cl)ccc1/N=C/N(C)C` [Chlorodimeform], the Degree of damage result in data set [4] is given as “+”.

Consider `CCOP(=O)(Oc1ccccc1)SC(C)(C)C` (stereo not drawn) [Present compound, S-tert-butyl O-ethyl O-phenyl phosphorothiolate], for which the Extent of settlement result in data set [3] (setting [5]) is given as “- to + (Not more than 10% as compared with untreated plot)”; in data set [3] (setting [6]), “-”. The mortality at 1 ppm in data set [1] came out at 100%. The Degree of damage entry in data set [4] is “-”. Also, the mortality at 168 h in data set [2] was 0%.
